According to US20060209305A1, “Biosensor” (FUJI PHOTO FILM CO., LTD., priority 2005, published 2006):

Tested on: Carbonic Anhydrase
Assay: Evaluation of Hydrochlorothiazide binding capacity by surface plasmon resonance on CA captured on an Anti-CA-immobilized chip
Details: two minutes after start of replacement
Description: The following experiment was carried out using a device shown in FIG. 22 of Japanese Patent Laid-Open No. 2001-330560 (hereinafter referred to as the surface plasmon resonance measurement device of the present invention) (shown in FIG. 1 of the present specification) and a dielectric block shown in FIG. 23 of Japanese Patent Laid-Open No. 2001-330560 (hereinafter referred to as the dielectric block of the present invention) (shown in FIG. 2 of the present specification).
After solutions were removed from the above dextran measuring chip, 70 μl of a mixture solution of 200 mM EDC (N-ethyl-N′-(3-dimethylaminopropyl)carbodiimide hydrochloride) and 50 mM NHS (N-hydroxysuccinimide) was added and the chip was then allowed to stand for 10 minutes. After the mixture solution was removed, the chip was washed three times with 100 μl of water and three times with 100 μl of Acetate 4.5 buffer (produced by Biacore). The chip filled with 100 μl of Acetate 4.5 buffer was set on the surface plasmon resonance measurement device of the present invention. The inside of the chip was replaced with anti-Carbonic Anhydrase antibody (hereafter referred to as Anti-CA, which was purchased from COSMO BIO Co., Ltd.(NOR)) solution (dissolved in Acetate 4.5 (produced by BIAcore) to […]), and the chip was allowed to stand for 30 minutes for immobilizing the Anti-CA. The inside of the chip was then replaced with 1M ethanolamine solution, and the chip was allowed to stand for 10 minutes. The inside of the chip was washed ten times with 100 μl of Acetate 4.5 buffer, thereby preparing an Anti-CA-immobilized chip. The amount of change in resonance signal due to Anti-CA immobilization was 15,000RU. After the measurement of the signal change, the inside of the Anti-CA-immobilized chip was washed three times with 100μl of 1×PBS (pH7.4) buffer (Wako Pure Chemical Industries, Ltd.).
The dielectric block of the Anti-CA-immobilized chip was then capped with a silicon rubber, thereby preparing a cell with an inner volume of 15 μl. Also, a fluid channel system was prepared by making two 1-mm φ holes in the silicon rubber cap and putting a teflon tube (registered trademark) with an internal diameter of 0.5 mm and an external diameter of 1 mm through the holes. Individual chips with such fluid channel system were set on the surface plasmon resonance measurement device of the present invention.
The inside of the fluid channel system was filled with 1×PBS (pH7.4) buffer. Signal changes were measured at 0.5 seconds intervals with reference to the signal prior to the replacement of the fluid. The inside of the fluid channel system was then replaced with Carbonic Anhydrase (produced by SIGMA, hereinafter referred to as CA) solution (dissolved in 1×PBS (pH7.4) to 100 μg/ml). When the binding signal reached 3,000RU, the inside was replaced with Hydrochlorothiazide (produced by SIGMA) solution (dissolved in 1×PBS (pH7.4) to 50 μM) by the individual methods indicated in Table 1. […] In order to obtain highly reliable data, it is preferable that the compound binding detection signal be 5RU or more.

NS(=O)(=O)c1cc2c(cc1Cl)NCNS2(=O)=O [Hydrochlorothiazide]
Signal change (Method No. 1 (Example): 50 μM in 1×PBS pH7.4, fluid 100 μl, flow 100 μl/sec, replacement 1 sec, stop 119 sec): 15 RU
Signal change (Method No. 2 (Example): 50 μM in 1×PBS pH7.4, fluid 100 μl, flow 10 μl/sec, replacement 10 sec, stop 110 sec): 12 RU
Signal change (Method No. 3 (Example): 50 μM in 1×PBS pH7.4, fluid 150 μl, flow 5 μl/sec, replacement 30 sec, stop 90 sec): 10 RU
Signal change (Method No. 4 (Example): 50 μM in 1×PBS pH7.4, fluid 200 μl, flow 20 μl/sec, replacement 10 sec, stop 110 sec): 10 RU
Signal change (Method No. 5 (Comparative example): 50 μM in 1×PBS pH7.4, fluid 300 μl, flow 2.5 μl/sec, replacement 120 sec, stop 0 sec): −1 RU
Signal change (Method No. 6 (Comparative example): 50 μM in 1×PBS pH7.4, fluid 600 μl, flow 5 μl/sec, replacement 120 sec, stop 0 sec): −4 RU
Signal change (Method No. 7 (Comparative example): 50 μM in 1×PBS pH7.4, fluid 1200 μl, flow 10 μl/sec, replacement 120 sec, stop 0 sec): −10 RU
Signal change (Method No. 8 (Comparative example): 50 μM in 1×PBS pH7.4, fluid 2400 μl, flow 20 μl/sec, replacement 120 sec, stop 0 sec): −20 RU
